Experimental data: patent US10499648B2, “Sterilization method, formulation for sterilization use, and device for producing sterilizing liquid” (priority 2014, dated 2019)

Columns and labels:
[1] = equilibrium O2-. + H+ <-> HOO.; cited from earlier work
[2] = test system: Escherichia coli; assay: Sterilization effect of synthesized peroxynitric acid on Escherichia coli (FIG. 8); type: cell-based; settings: peroxynitric acid approximately 0.02 mM or higher; pH 3.5; 25° C.; from 7 orders to 2 orders or less (detection limit)
Experimental: In FIGS. 8, 9, and 11, solution of peroxynitric acid has a pH value of 3.5 and a temperature of 25° C. In the heat treatment of FIG. 10, the solution of peroxynitric acid is heated for thirty minutes to have a temperature of 60° C.
(§1) In this experiment, the detection limit was reached when the number of living microorganisms was in 2 orders of magnitude or less, then further sterilization effect was not measured. Thus, if the concentration of the synthesized peroxynitric acid is further increased, the number of living microorganisms is expected to be further reduced. In the experiment, diluted solution of the synthesized peroxynitric acid was used. If undiluted solution is used, more powerful microbicidal activity is expected to be exerted. The peroxynitric acid synthesized in the fourth embodiment has a concentration of 420 mM. For example, using undiluted solution of the synthesized peroxynitric acid probably lowers the number of living microorganisms to further […] of magnitude or more.

[3] = test system: Bacillus subtilis spore; assay: Sterilization effect of synthesized peroxynitric acid on Bacillus subtilis spore (FIGS. 9-11); type: cell-based; settings: for drop of the number of living microorganisms in Bacillus subtilis spore: peroxynitric acid approximately 0.5 mM or higher, pH 3.5
Experimental: Where the solution of the synthesized peroxynitric acid has a pH value of 3.5 and the peroxynitric acid has a concentration of approximately 0.5 mM or higher, the number of living microorganisms in Bacillus subtilis spore drops from 6 orders of magnitude to 2 orders of magnitude or less, which indicates a drop of 4 orders of magnitude or more.
as §1

[4] = Lifetime / decomposition of synthesized peroxynitric acid depending on temperature; type: physicochemical; settings: solution at 0° C.
Source text: The synthesis reaction of peroxynitric acid progresses also at a room temperature. To be specific, peroxynitric acid is synthesized at a room temperature; however, the lifetime of the synthesized peroxynitric acid depends on temperature. Where being saved at a room temperature, the synthesized peroxynitric acid is quickly decomposed to turn into nitric acid in a short time. When the temperature rises by 5 degrees, the rate of decomposition doubles. For example, the rate of decomposition at a temperature of 20° C. is 16 times as fast as that at a temperature of 0° C. (zero). Thus, the synthesized peroxynitric acid turns into nitric acid solution very quickly at a temperature of 50° C. The half-life of the peroxynitric acid is 10 minutes or so at a room temperature. The half-life of the peroxynitric acid is a few hours (2 to 3 hours or so) at a temperature of 0 (zero) degrees.
In order to preserve the solution with the biocidal activity maintained, it is preferable to set the temperature of the solution as low as possible. For example, the solution is adjusted to have a temperature of 0° C., which enables the solution to be stored/preserved for a couple of hours, for example, for 5 to 8 hours or so. Freezing the solution allow the solution to be preserved for a longer time.

[5] = Activation energy in decomposition response, compared with literature value; type: physicochemical
Experimental: As for the substance corresponding to the retention time RT of 2.8 minutes shown in FIG. 5, an activation energy in decomposition response thereof was actually measured. The activation energy measured was compared to an activation energy in decomposition response of peroxynitric acid. The comparison result is provided as follows: • Actual measured value: 109 kJ/mol • Literature value: 110 kJ/mol • Both the values are in good accord with each other. Thereby, the substance corresponding to the retention time RT of 2.8 minutes is probably peroxynitric acid.
The activation energy in decomposition response herein was cited from the following document.
J. Phys. Chem. A 1997, 101, 8822-8829 “Peroxynitric Acid Decay Mechanisms and Kinetics at Low pH”.

[6] = Time needed for sterilization depending on solution temperature; settings: solution temperature 30° C.
Experimental: Where the solution has a temperature of 10° C. or lower, the solution may be applied to an object to be sterilized with the temperature remaining unchanged. It is also possible to raise the temperature of the solution to 20° C. or more at the time of application of the solution to the object to be sterilized. It is preferable for the solution to have a lower temperature in order to preserve peroxynitric acid, but at the same time, is preferable for the solution to have a certain level of high temperature for sterilization. To be specific, while the solution having a temperature of 0° C. needs time to sterilize the object, the solution having a temperature of 30° C. needs only 20 seconds to sufficiently sterilize the object. When the situation permits to take time to sterilize the object, it is preferable to perform sterilization at a low temperature. When quick sterilization is needed, it is preferable to raise the temperature, for example, to 30 through 40° C.

[7] = Sterilization effect after adding enzyme for disappearing superoxide anion radicals
Source text: The peroxynitric acid in the solution is probably a precursor which produces the superoxide anion radicals (O2—.). The superoxide anion radicals (O2—.) are probably precursors which produce the hydroperoxy radicals (HOO.).

[8] = J. Phys. Chem. A 1997, 101, 8822-8829; cited from earlier work

Row | Compound | pKa (acid dissociation constant) [1] | drop of the fungicidal concentration (number of living microorganisms) of Escherichia coli [2] | drop of the number of living microorganisms in Bacillus subtilis spore ([3]; FIG. 9, 25° C., from 6 orders to 2 orders or less (detection limit)) | drop of the number of living microorganisms in Bacillus subtilis spore ([3]; FIG. 10) | number of living microorganisms in Bacillus subtilis spore ([3]; FIG. 10, solution pH 6.5, stays in 6 orders of magnitude) | sterilization effect on Bacillus subtilis spore after heat treatment ([3]; FIG. 11, peroxynitric acid heated thirty minutes to 60° C., count stays in 6 orders of magnitude) | time the solution can be stored/preserved with biocidal activity maintained [4] | activation energy in decomposition response, actual measured value [5] | time needed to sufficiently sterilize the object [6] | sterilization effect with enzyme for disappearing superoxide anion radicals in the solution [7] | activation energy in decomposition response, literature value [8]
1 | [O]O [hydroperoxy radicals (HOO.), hydroperoxy radicals] | 4.8 |  |  |  |  |  |  |  |  |  | 
2 | peroxynitric acid |  | ≥ 5 orders | ≥ 4 orders | ≥ 4 orders of magnitude | approximately constant independently of the concentration of the peroxynitric acid | disappearance of sterilization effect | 5 to 8 h | 109 kJ/mol | 20 s | sterilization effect is not observed | 110 kJ/mol
